# Measurements taken from US20160249841A1, “[…] ELECTROENCEPHALOGRAPHIC OSCILLATIONS” (Galenea Corp., priority 2012, published 2016).
# Assays:
# CNhetKO mice [1] = assay: EEG oscillations in PFC during onset of exploratory activity in novel object recognition task, CNhetKO mice; type: in vivo, mouse; settings: 5 mg/kg subcutaneously
# Excerpt: Alterations in electroencephalographic oscillations (e.g., shifts in power) recorded from the prefrontal cortex (PFC) of mice could result from engagement of executive functions necessary for attending to and actively exploring a new environment; processes unrelated to executive function may also be involved. An integrated system was set up that combined automated real-time behavioral analysis (Topscan, CleverSys, Inc., Reston, Va.) together with multichannel electrophysiology equipment (MC_Rack, MultiChannel Systems, GmbH, Reutlingen, Germany) to analyze PFC activity during different phases of a novel object recognition (NOR) task in mice that were well habituated to the test apparatus.
# EEGs were recorded from control and calcineurin heterozygous knock-out (CNhetKO) subjects during performance of a novel-object recognition task. […] During each phase, the behavior of each subject was monitored in real time and synchronized to recorded EEG oscillations (Topscan, CleverSys Inc.). […]
# The area under the curve was computed from spectrograms to quantify power in different frequency bands [Theta (4-12 Hz) and GammaHI (65-90 Hz)] of the EEG oscillations. […]
# The effects of D4 agonist PD168077 on the EEG oscillations observed during onset of the exploratory activity in CNhetKO mice were evaluated. […] Time-frequency maps of baseline conditions (no D4 agonist) and treatment conditions were evaluated.
# CNhetKO mice [2] = assay: Novel object recognition task performance, CNhetKO mice; type: in vivo, mouse
# Method: EEGs were recorded from control and calcineurin heterozygous knock-out (CNhetKO) subjects during performance of a novel-object recognition task. Control and CNhetKO mice were exposed to two identical objects during a 10 min sample phase. After a 24 hour delay period, subjects were exposed to a familiar object and a novel object. During each phase, the behavior of each subject was monitored in real time and synchronized to recorded EEG oscillations (Topscan, CleverSys Inc.). As depicted in FIG. 4, an exploratory activity occurred when a subject's nose was orientated towards an object and was within a 2 cm radius surrounding the object for at least 200 msec, while the subject's center of mass (‘*’) was outside of 2 cm radius. […]
# The effects of D4 agonist PD168077 on the EEG oscillations observed during onset of the exploratory activity in CNhetKO mice were evaluated. CNhetKO subjects were treated with PD 168077 (5 mg/kg) subcutaneously and EEG oscillations associated with exploratory activity in a novel object recognition task were analyzed. Exploratory activity in the presence of novel objects and familiar objects was analyzed for up to 90 min post-injection. Time-frequency maps of baseline conditions (no D4 agonist) and treatment conditions were evaluated.
# Coloboma mice = settings: low doses; cited from earlier work
# wild-type mice = assay: EEG time-frequency maps of mean power during onset of exploratory activity, wild-type mice treated with PCP; type: in vivo, mouse; settings: wild-type mice treated with PCP versus untreated, FIG. 10
# Excerpt: Time-frequency maps were produced of mean power for untreated wild-type mice and mice treated with PCP. A signature in EEG oscillations observed in untreated mice was absent following treatment with PCP. This signature was characterized by peaks in early beta (20-30 Hz) activity, gammaLow (30-40 Hz) and gammaHi (80-100) Hz activity.
structure (smiles),measurement,setting,value
Cc1cccc(C(=O)NCN2CCN(c3ccccc3C#N)CC2)c1 [PD 168077],Signature of EEG oscillation observed during onset of the exploratory activity (time-frequency maps),"CNhetKO mice [1]; CNhetKO mice, up to 90 min post-injection, versus baseline (no D4 agonist)",restored the signature of EEG oscillation
same,Gamma responses (GammaHi 65-90 Hz EEG power) in PFC elicited by object exploration,"CNhetKO mice [1]; CNhetKO subjects, analyzed up to 90 min post-injection, FIG. 6",transiently restored normal Gamma responses
same,Time spent exploring novel objects versus familiar objects,"CNhetKO mice [2]; CNhetKO mice, versus cyclodextrin control, FIG. 8B",significantly more time exploring novel objects compared with familiar objects
same,Performance in the novel object recognition cognitive paradigm,"CNhetKO mice [2]; CNhetKO subjects, 5 mg/kg s.c. 30 min prior to familiarization phase and again 30 min prior to test phase after 24 hr",essentially completely restored performance
C[C@H](N)Cc1ccccc1 [D-amphetamine],Hyperkinesis,Coloboma mice,ameliorated
"c1ccc(C2(N3CCCCC3)CCCCC2)cc1 [PCP, Phencyclidine]","Signature in EEG oscillations (peaks in early beta 20-30 Hz, gammaLow 30-40 Hz, gammaHi 80-100 Hz)",wild-type mice,absent
